In paper PMC6562543 (Marine Drugs, 2019):

Test system: CaV2.2 channels (α1B, α2δ1, and β3)
Type: cell-based, rat

In the case of `CSCC[C@@H]1NC(=O)[C@H](CC(C)C)NC(=O)[C@H](CCCNC(=N)N)NC(=O)[C@H](CO)NC(=O)[C@@H]2CSSC[C@@H]3NC(=O)[C@H](CO)NC(=O)CNC(=O)[C@H]([C@@H](C)O)NC(=O)[C@H](CSSC[C@H](N)C(=O)N[C@@H](CCCCN)C(=O)NCC(=O)N[C@@H](CCCCN)C(=O)NCC(=O)N[C@@H](C)C(=O)N[C@@H](CCCCN)C(=O)N2)NC(=O)[C@H](CSSC[C@@H](C(N)=O)NC(=O)[C@H](CCCCN)NC(=O)CNC(=O)[C@H](CO)NC(=O)[C@H](CCCNC(=N)N)NC3=O)NC(=O)[C@H](CC(=O)O)NC(=O)[C@H](Cc2ccc(O)cc2)NC1=O` [MVIIA, ω-Conotoxin MVIIA], the Hill slope is reported as 1.296, the “inhibitory effect on CaV2.2 channel” value (2 µM) is reported as “more than 90%” and the “reduction of ICa amplitude” value (SEM) is reported as 98.24 ± 0.708%.
